{"source": "patent US9644019B2", "about": "“Compounds for treating cardiac damage after ischaemia/reperfusion” (priority 2010, dated 2017)", "key": {"EMMPRIN promoter": {"tested_on": "EMMPRIN promoter", "assay": "EMMPRIN promoter luciferase reporter (pEMMPRIN-WT), transient transfection of cardiomyocytes", "format": "cell-based, mouse", "settings": "for EMMPRIN promoter transcriptional activity: cardiomyocytes transiently transfected with pEMMPRIN-WT", "method": "To clone the mouse EMMPRIN promoter, commercial chromosome BAC CH29-603O5 (which contains part of murine chromosome 10), from CHORI (Children's Hospital Oakland Research Institute) was used as a template in PCR reactions with the following oligonucleotides:\nThe resulting PCR fragment was cloned into the pGL3-Basic vector (Promega) at 5′ position to the luciferase reporter gene (hereinafter referred to as pEMMPRIN-WT).\nThe transient DNA transfection experiments were carried out by means of using the LIPOFECTAMINE (catatonic-lipid transfection reagent) 2000 reagent as previously described by the manufacturer. The luciferase content in the transfected cells was measured as previously described [Zaragoza C et al. Molecular pharmacology 2002; 62:927-935]. In summary, the cells were transiently transfected with 1 microgram of DNA and 10 μl of LIPOFECTAMINE (catatonic-lipid transfection reagent) 2000 in OPTIMEM culture medium (a modification of Eagle's Minimum Essential Media, buffered with HEPES and sodium bicarbonate, and supplemented with hypoxanthine, thymidine, sodium pyruvate, L-glutamine, trace elements, and growth factors) for 4 hours, after which time they were washed and incubated with fresh culture medium (MEM/10% FCS) for 16 hours. Furthermore, as a control, the cells were co-transfected with a plasmid containing the constitutively active promoter of cytomegalovirus fused with the R-Luciferase gene (Renilla), used as a control. Each sample was therefore evaluated for the content of both P-(firefly) and R-luciferase. […] of the gene product of the reporter gene of the co-transfected control plasmid. The results were normalized for R-Luciferase content.\nTo analyze in depth the repressive effect of NO on the EMMPRIN transcription, the first 1000 bps of the regulatory region of the EMMPRIN gene, fused to the luciferase reporter gene (pEMMPRIN-WT), were cloned."}, "iNOS": {"molecular_target": "T1, iNOS (Mus musculus, UniProt P29477)", "T1 construct": "tissue The Jackson Laboratories (mice); host or cells: living wild-type mice; heart after coronary ischemia/reperfusion", "T1 sequence (P29477 1-1144)": "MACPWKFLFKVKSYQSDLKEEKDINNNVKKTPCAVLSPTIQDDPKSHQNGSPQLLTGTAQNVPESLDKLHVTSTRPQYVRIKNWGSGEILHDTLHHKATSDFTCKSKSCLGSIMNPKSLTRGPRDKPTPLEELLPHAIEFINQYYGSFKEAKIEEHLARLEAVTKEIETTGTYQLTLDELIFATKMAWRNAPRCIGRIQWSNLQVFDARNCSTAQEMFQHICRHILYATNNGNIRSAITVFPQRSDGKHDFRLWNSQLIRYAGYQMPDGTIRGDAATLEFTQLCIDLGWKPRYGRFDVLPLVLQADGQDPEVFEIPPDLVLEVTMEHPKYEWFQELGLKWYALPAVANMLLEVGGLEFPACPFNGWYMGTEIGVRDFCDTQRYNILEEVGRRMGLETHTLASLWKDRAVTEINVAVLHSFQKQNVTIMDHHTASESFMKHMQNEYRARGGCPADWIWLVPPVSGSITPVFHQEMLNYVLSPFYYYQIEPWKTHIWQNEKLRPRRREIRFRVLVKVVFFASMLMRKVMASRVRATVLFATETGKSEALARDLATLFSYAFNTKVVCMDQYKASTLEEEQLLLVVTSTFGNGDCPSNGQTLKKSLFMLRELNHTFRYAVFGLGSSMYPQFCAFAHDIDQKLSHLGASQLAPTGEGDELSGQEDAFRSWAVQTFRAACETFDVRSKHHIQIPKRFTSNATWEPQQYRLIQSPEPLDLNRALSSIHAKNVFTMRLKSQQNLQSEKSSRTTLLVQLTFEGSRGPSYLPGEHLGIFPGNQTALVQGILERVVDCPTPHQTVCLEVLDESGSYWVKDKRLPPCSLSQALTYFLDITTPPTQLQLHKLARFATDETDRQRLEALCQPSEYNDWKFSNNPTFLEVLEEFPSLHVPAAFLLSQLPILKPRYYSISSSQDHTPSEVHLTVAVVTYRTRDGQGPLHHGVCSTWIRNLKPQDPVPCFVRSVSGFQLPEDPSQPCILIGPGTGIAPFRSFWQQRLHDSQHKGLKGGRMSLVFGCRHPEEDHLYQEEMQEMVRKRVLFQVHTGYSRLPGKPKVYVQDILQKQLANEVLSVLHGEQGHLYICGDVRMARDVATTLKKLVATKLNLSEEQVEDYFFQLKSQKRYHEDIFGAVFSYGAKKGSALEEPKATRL", "assay": "Coronary ischemia/reperfusion with pharmacological iNOS inhibition in iNOS wild-type mice", "format": "in vivo", "method": "Ischemia was induced by means of the coronary artery ligation in the manner detailed below: twelve week old mice were anesthetized intraperitoneally by means of using ketamine/xylazine (100 mg/kg/10 mg/kg, respectively), intubated with a 1 mm steel tube, and ventilated (2 ml, 80 pulses/minute). After this process, the chest of the mice was opened between the second and third ribs, being kept open by means of the aid of a retractor for mice. The pericardium was then opened to subsequently temporarily ligate the left coronary artery in a region close to its branch by means of using a 6-0 silk suture and for a period of 30 minutes. Evidence of coronary occlusion was clearly shown by means of the discoloration of the left ventricle after the arterial ligation. After 30 minutes, the ligation is removed, the chest closed and the skin sutured. Additionally, a group of control animals (sham) were included in the assays, in which the same method was carried out with the exception of the coronary artery occlusion. To inhibit iNOS in vivo, the iNOS wild-type mice were injected in the tail vein with 2 mg/kg/day of the pharmacological inhibitor of iNOS, 1400W, 30 minutes before ischemia and 24 hours after ischemia/reperfusion. […] To evaluate the effect of anti-EMMPRIN on the ischemic process/reperfusion, the antibodies were administered intravenously for four days before the surgical procedure, after which time the infarct size, cardiac function and EMMPRIN and MMP-9 expression were evaluated.\nThe heart of the animals was included in paraffin to subsequently obtain sections 4 microns thick as previously described [Tarin et al. mentioned ad supra]. The morphology of the heart was viewed by means of staining with hematoxylin and eosin, whereas collagen deposition was monitored by means of Masson's trichrome staining. […]\nAdditionally, nitration was detected by means of using anti-3-Nitrotyrosine in sections isolated from those same animals, confirming that the exogenously supplied NO was present in the hearts of the animals treated during the time of the experiment (FIG. 2D, right)."}, "EMMPRIN mRNA [1]": {"tested_on": "EMMPRIN mRNA", "assay": "EMMPRIN mRNA, quantitative real-time RT-PCR in HL1 cardiomyocytes", "format": "cell-based, mouse", "settings": "cardiomyocytes in culture, 100 μM DETA-NO", "method": "(§1) (A) Quantitative real-time RT-PCR showing EMMPRIN expression in the hearts of wild-type and iNOS knockout animals after ischemia/reperfusion (n=3 in triplicate, mean±SD *p<0.05 vs iNOS null−). (B) Quantitative real-time RT-PCR showing EMMPRIN expression in HL1 cardiomyocytes in response to the exogenous administration of 100 μM DETA-NO (n=3, mean±SD *p<0.05). (C) Quantitative real-time RT-PCR showing EMMPRIN expression in RAW […] macrophages in culture in response to the exogenous administration of 100 μM of DETA-NO, endogenous NO production (50 μM LPS), or iNOS inhibition by means of adding 100 μM 1400W (n=3 mean±SD). (D) Stability assay of EMMPRIN mRNA in HL-1 cardiomyocytes (left) and in RAW […] macrophages (right) (n=3, mean±SD *p<0.05).\n(§2) The HL1 cardiomyocyte cell line was donated by Dr. Antonio Bernad and cultured as described [Ruiz-Meana M et al. Cardiovascular research 2006; 71:715-724]. The RAW […] murine macrophage line was cultured as described [Tarin C et al. Arteriosclerosis, thrombosis, and vascular biology 2009; 29:27-32]."}, "EMMPRIN mRNA [2]": {"tested_on": "EMMPRIN mRNA", "assay": "EMMPRIN mRNA, quantitative real-time RT-PCR in RAW macrophages", "format": "cell-based, murine", "settings": "RAW macrophage cell line, 100 μM DETA-NO", "method": "as §1, §2"}, "EMMPRIN mRNA [3]": {"tested_on": "EMMPRIN mRNA", "assay": "EMMPRIN mRNA stability assay (actinomycin D) in HL-1 cardiomyocytes", "format": "cell-based, mouse", "settings": "cardiomyocyte cell line, over time", "method": "(§3) For this assay, cells were incubated in wells […] in diameter and incubated in the presence of 10 μM of actinomycin D for 16 hours, after which time the cells were treated with diethylenetriamine-NO (DETA-NO) at different times. The RNA of the different experiment times was isolated and both for EMMPRIN and for GAPDH (as a control), their mRNAs were evaluated by means of quantitative real-time RT-PCR."}, "EMMPRIN mRNA [4]": {"tested_on": "EMMPRIN mRNA", "assay": "EMMPRIN mRNA stability assay (actinomycin D) in RAW macrophages", "format": "cell-based, murine", "method": "as §3"}, "[5]": {"tested_on": "MAEC cells (mouse aortic endothelial cells)", "assay": "Internalization of AP-9 nanoparticles by MAEC cells and co-localization with EMMPRIN", "format": "cell-based", "settings": "for internalization into MAEC cells: overnight incubation", "method": "The MAEC cells were incubated overnight with the AP-9 nanoparticles (NP-AP-9) (20 μg/ml) (right panel) or with non-loaded nanoparticles (NP-NT) (left panel). The MAEC cells were fixed, and EMMPRIN expression was detected using an anti-EMMPRIN antibody. Co-localization between the NP-AP-9 signal and the EMMPRIN signal was found in MAEC cells treated with NP-AP-9 (right panel), but this co-localization was not found in the control nanoparticles. The cores were stained with DAPI.\nThe MAEC cells were cultured in a black 96-well plate and incubated overnight with different concentrations of nanoparticles loaded with AP-9 (NP-AP9) or nanoparticles without AP-9 (NP-NT). Fluorescence was measured using an IVIS imaging system. The graph on the right represents the intensity of the fluorescence signal of the image on the left.\nNanoparticles containing AP-9 have therapeutic value, because EMMPRIN is inhibited and tissue damage due to proteolytic enzyme activation is reduced."}}, "note": "No end group written: not given here."}
{"compound": "CC(=O)NC(C(=O)O)C(C)(C)SN=O", "note": "(racemic) [SNAP, S-Nitroso-N-acetyl-D,L-penicillamine]", "values": [{"measurement": "EMMPRIN promoter transcriptional activity", "setting": "EMMPRIN promoter", "result": "results similar to those generated with DETA-NO"}]}
{"compound": "Nc1nc2c(nc(Br)n2[C@@H]2O[C@@H]3COP(=O)(O)O[C@H]3[C@H]2O)c(=O)[nH]1", "note": "[8-Br-cGMP]", "values": [{"measurement": "EMMPRIN promoter transcriptional activity", "setting": "EMMPRIN promoter", "result": "same effect as the NO donor"}]}
{"compound": "CC(=N)NCc1cccc(CN)c1", "note": "[1400W]", "values": [{"measurement": "infarct size", "setting": "iNOS; 1400W 2 mg/kg/day tail vein, vs control mice", "result": "significantly increase"}, {"measurement": "MMP-9 levels", "setting": "iNOS; 1400W 2 mg/kg/day, WT 1400WC vs WT 1400W", "result": "increase"}, {"measurement": "EMMPRIN levels", "setting": "iNOS; 1400W 2 mg/kg/day, vs control mice", "result": "increase"}]}
{"compound": "NCCN(CCN)/[N+]([O-])=N/O", "note": "[DETA-NO, diethylenetriamine-NO]", "values": [{"measurement": "EMMPRIN mRNA levels", "setting": "EMMPRIN mRNA [1]", "result": "significantly reduced"}, {"measurement": "EMMPRIN gene expression", "setting": "EMMPRIN mRNA [2]", "result": "did not induce a significant effect"}, {"measurement": "EMMPRIN mRNA stability", "setting": "EMMPRIN mRNA [3]", "result": "significant reduction"}, {"measurement": "EMMPRIN mRNA stability", "setting": "EMMPRIN mRNA [4]", "result": "no effect whatsoever"}]}
{"compound": "O=c1c2nc(Br)n([C@@H]3O[C@@H]4CO[P@@](O)(=S)O[C@H]4[C@H]3O)c2nc2[nH]c(-c3ccccc3)cn12", "note": "[Rp-8-Br-PET-cGMPS]", "values": [{"measurement": "EMMPRIN promoter transcriptional activity", "setting": "EMMPRIN promoter", "result": "significant increase"}, {"measurement": "EMMPRIN promoter activity in combination with NO", "setting": "EMMPRIN promoter; cardiomyocytes, pEMMPRIN-WT, PET + NO (100 μM DETA-NO)", "result": "partially restoring the negative effect of NO"}]}
{"compound": "NCCCNCCCCN(CCCN)/[N+]([O-])=N/O", "note": "[Spermine-NONOate]", "values": [{"measurement": "EMMPRIN promoter transcriptional activity", "setting": "EMMPRIN promoter", "result": "results similar to those generated with DETA-NO"}]}
{"compound": "NP-AP-9: nanoparticles with iron oxide core, single lipid-PEG layer with fluorochrome, and AP-9 peptide bound to the surface (YKLPGHHHHYRP; also: bound to surface of iron oxide nanoparticles with lipid-PEG layer and fluorochrome, attachment site not given here)", "values": [{"measurement": "co-localization of nanoparticle signal with EMMPRIN signal", "setting": "[5]; 20 μg/ml overnight", "result": "Co-localization"}, {"measurement": "dose dependence of internalization (fluorescence signal)", "setting": "[5]; 96-well plate, different concentrations overnight, IVIS imaging", "result": "dose-dependent manner"}, {"measurement": "internalization into MAEC cells", "setting": "[5]", "result": "internalization"}, {"measurement": "internalization into MAEC cells", "setting": "[5]; listed as Nanoparticles containing AP-9", "result": "could be internalized"}]}
